According to article PMC6467542 (Bioorganic & Medicinal Chemistry, 2019):
In brackets after ≈: the same amount, converted by molar mass.

Assays:
M. tb (strain H37Rv) [1] = experiment: MIC90 against non-replicating M.tb (LORA); type: cell-based, Mycobacterium tuberculosis; details: for MIC90: Mycobacterium tuberculosis, H37RV, read-out: MIC90 LORA
Experimental: In these assays, 1 is a potent inhibitor, with MICs of 0.08 and 0.12 µg/mL, respectively. Replacement of the naphthalene C-unit of 1 with various pyridyls produced analogues of considerably lower lipophilicity, with clogP values ranging from 6.89 down to 2.98.

M. tb (strain H37Rv) [2] = experiment: MIC90 against replicating M.tb (MABA); type: cell-based, Mycobacterium tuberculosis; details: aerobic (replicating) conditions, 90% inhibition of growth; for MIC90: Mycobacterium tuberculosis
in vitro [3] = details: mouse, microsomes
in vitro [4] = details: human, microsomes
hERG potassium channel = hERG potassium channel (Homo sapiens, UniProt Q12809); experiment: Inhibition of hERG potassium current (patch clamp electrophysiology); details: for IC50: read-out: hERG IC50, manual patch clamp, 5-concentration dose-response; for hERG % inhibition at 1 µM: manual assay; for hERG % inhibition at 3 µM: manual or (less accurate) QPatch assay
[5] = mouse, in vivo

hERG potassium channel, sequence (Q12809 whole entry): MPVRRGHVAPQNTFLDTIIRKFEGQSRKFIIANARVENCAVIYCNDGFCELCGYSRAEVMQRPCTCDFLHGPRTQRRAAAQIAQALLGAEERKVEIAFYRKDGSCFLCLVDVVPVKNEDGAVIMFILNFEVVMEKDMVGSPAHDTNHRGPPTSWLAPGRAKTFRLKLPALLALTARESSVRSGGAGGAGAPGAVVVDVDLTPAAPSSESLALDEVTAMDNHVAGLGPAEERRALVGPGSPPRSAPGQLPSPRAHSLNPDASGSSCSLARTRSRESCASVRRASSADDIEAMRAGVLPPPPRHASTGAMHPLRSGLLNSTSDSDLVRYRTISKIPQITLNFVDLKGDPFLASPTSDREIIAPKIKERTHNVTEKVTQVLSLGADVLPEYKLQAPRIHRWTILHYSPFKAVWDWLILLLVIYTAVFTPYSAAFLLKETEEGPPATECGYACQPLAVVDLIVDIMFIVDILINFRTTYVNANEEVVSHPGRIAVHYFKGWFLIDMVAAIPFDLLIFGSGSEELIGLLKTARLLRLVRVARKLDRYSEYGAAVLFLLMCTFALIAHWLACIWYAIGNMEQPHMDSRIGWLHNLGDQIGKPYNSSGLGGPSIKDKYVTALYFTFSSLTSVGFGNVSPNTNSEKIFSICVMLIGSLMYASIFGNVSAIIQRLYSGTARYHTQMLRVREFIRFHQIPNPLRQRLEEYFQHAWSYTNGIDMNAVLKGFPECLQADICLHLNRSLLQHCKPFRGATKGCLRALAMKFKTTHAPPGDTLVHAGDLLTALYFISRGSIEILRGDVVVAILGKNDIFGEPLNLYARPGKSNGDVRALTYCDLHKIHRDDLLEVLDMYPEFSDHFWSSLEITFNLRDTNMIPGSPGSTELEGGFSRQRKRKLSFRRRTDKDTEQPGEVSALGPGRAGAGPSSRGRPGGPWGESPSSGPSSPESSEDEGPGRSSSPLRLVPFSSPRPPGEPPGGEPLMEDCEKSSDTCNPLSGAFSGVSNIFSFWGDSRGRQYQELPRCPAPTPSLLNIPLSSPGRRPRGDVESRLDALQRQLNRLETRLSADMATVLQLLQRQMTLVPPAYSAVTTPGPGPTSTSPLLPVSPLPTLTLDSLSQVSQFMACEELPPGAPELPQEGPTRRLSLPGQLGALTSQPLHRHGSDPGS

Compound	MIC90 (M. tb (strain H37Rv) [1]) [µg/mL]	MIC90 (M. tb (strain H37Rv) [2]) [µg/mL]	also measured
COc1cccc(C(c2cc3cc(Br)ccc3nc2OC)C(O)(CCN(C)C)c2cnc(C)c(C)c2)c1F (stereo not shown) [Compound 35]	0.29 (≈ 0.498 µM)	0.31 (≈ 0.532 µM)	
COc1cccc(C(c2cc3cc(C#N)ccc3nc2OC)C(O)(CCN(C)C)c2cc(C)cc(C)n2)c1OC (stereo not shown) [Compound 10]	0.62 (≈ 1.15 µM)	0.54 (≈ 0.999 µM)	
COc1cccc(C(c2cc3cc(C#N)ccc3nc2OC)C(O)(CCN(C)C)c2ncccc2C)c1F (stereo not shown) [Compound 8]	3.5 (≈ 6.8 µM)	3 (≈ 5.83 µM)	
COc1cccc(C(c2cc3cc(Br)ccc3nc2OC)C(O)(CCN(C)C)c2cc(C)cnc2C)c1F (stereo not shown) [Compound 32]	0.23 (≈ 0.395 µM)	0.07 (≈ 0.12 µM)	
COc1cccc(C(c2cc3cc(Br)ccc3nc2OC)C(O)(CCN(C)C)c2cnc(C)cc2C)c1F (stereo not shown) [Compound 37]	0.29 (≈ 0.498 µM)	0.53 (≈ 0.91 µM)	
COc1cc(C(O)(CCN(C)C)C(c2cc3cc(Br)ccc3nc2OC)c2cccc(OC)c2F)cnc1OC (stereo not shown) [Compound 47]	0.11 (≈ 0.179 µM)	0.07 (≈ 0.114 µM)	
COc1cccc(C(O)(CCN(C)C)C(c2cccc(C)c2)c2cc3cc(C#N)ccc3nc2OC)n1 (stereo not shown) [Compound 14]	0.29 (≈ 0.584 µM)	0.6 (≈ 1.21 µM)	
COc1ccc(C(O)(CCN(C)C)C(c2cc3cc(C#N)ccc3nc2OC)c2cccc(OC)c2OC)cn1 (stereo not shown) [Compound 44]		2.1 (≈ 3.87 µM)	
COc1cccc(C(c2cc3cc(Br)ccc3nc2OC)C(O)(CCN(C)C)c2cc(C)ccn2)c1F (stereo not shown) [Compound 6]	2.1 (≈ 3.69 µM)	0.6 (≈ 1.06 µM)	
COc1cccc(C(c2cc3cc(C#N)ccc3nc2OC)C(O)(CCN(C)C)c2cnc(C)c(C)c2)c1F (stereo not shown) [Compound 36]	3.3 (≈ 6.24 µM)	2.4 (≈ 4.54 µM)	
COc1cccc(C(c2cc3cc(Br)ccc3nc2OC)C(O)(CCN(C)C)c2cncc(C)c2)c1F (stereo not shown) [Compound 30]	0.2 (≈ 0.352 µM)	0.16 (≈ 0.281 µM)	
COc1cccc(C(c2cc3cc(C#N)ccc3nc2OC)C(O)(CCN(C)C)c2cccc(C)n2)c1OC (stereo not shown) [Compound 3]	1.9 (≈ 3.61 µM)	4.1 (≈ 7.79 µM)	
COc1ccnc(C(O)(CCN(C)C)C(c2cc3cc(Br)ccc3nc2OC)c2cccc(OC)c2F)c1 (stereo not shown) [Compound 17]	0.61 (≈ 1.04 µM)	1.2 (≈ 2.05 µM)	
COc1ccc(C(O)(CCN(C)C)C(c2cc3cc(Br)ccc3nc2OC)c2cccc(OC)c2OC)cn1 (stereo not shown) [Compound 43]	0.54 (≈ 0.905 µM)	0.28 (≈ 0.469 µM)	
COc1cnc(OC)c(C(O)(CCN(C)C)C(c2cc3cc(Br)ccc3nc2OC)c2cccc(OC)c2F)c1 (stereo not shown) [Compound 46]	0.04 (≈ 0.0651 µM)	0.09 (≈ 0.146 µM)	microsomal CLint (in vitro [3]): 53 µL/min/mg; microsomal CLint (in vitro [4]): 7 µL/min/mg; IC50 (hERG potassium channel): 2.9 µM
COc1cccc(C(c2cc3cc(C#N)ccc3nc2OC)C(O)(CCN(C)C)c2cncc(C)c2)c1F (stereo not shown) [Compound 31]	2.5 (≈ 4.86 µM)	3.3 (≈ 6.41 µM)	
COc1cccc(C(c2cc3cc(Br)ccc3nc2OC)C(O)(CCN(C)C)c2cc(C)cc(C)n2)c1OC (stereo not shown) [Compound 9]	0.3 (≈ 0.505 µM)	0.28 (≈ 0.471 µM)	
COc1cc(C(O)(CCN(C)C)C(c2cc3cc(Br)ccc3nc2OC)c2ccnc(OC)c2OC)c(OC)nc1OC (stereo not shown) [Compound 49]	1.4 (≈ 2.13 µM)	0.57 (≈ 0.867 µM)	microsomal CLint (in vitro [3]): 7 µL/min/mg; microsomal CLint (in vitro [4]): 5 µL/min/mg; AUC: exposure, AUCinf [5]: 9130 ng·h/mL; IV Cl: IV clearance [5]: 10 mL/min/kg; Vz: IV apparent volume of distribution during terminal phase [5]: 12 L/kg; F: oral bioavailability [5]: 52%; IC50 (hERG potassium channel): 2.7 µM
COc1cccc(C(c2cc3cc(Br)ccc3nc2OC)C(O)(CCN(C)C)c2ncc(C)cc2C)c1F (stereo not shown) [Compound 13]	0.46 (≈ 0.79 µM)	0.3 (≈ 0.515 µM)	
CCc1cc(C(O)(CCN(C)C)C(c2cc3cc(C#N)ccc3nc2OC)c2cccc(OC)c2F)cc(CC)n1 (stereo not shown) [Compound 59]	0.28 (≈ 0.503 µM)	0.19 (≈ 0.341 µM)	microsomal CLint (in vitro [3]): 27 µL/min/mg; microsomal CLint (in vitro [4]): 10 µL/min/mg; hERG % inhibition at 1 µM (hERG potassium channel): 48%/1
COc1cccc(C(c2cc3cc(C#N)ccc3nc2OC)C(O)(CCN(C)C)c2cncc(C)c2)c1OC (stereo not shown) [Compound 29]	3.8 (≈ 7.22 µM)	4.2 (≈ 7.98 µM)	
COc1nc2ccc(C#N)cc2cc1C(c1cccc2c1OCO2)C(O)(CCN(C)C)c1cccnc1OC (stereo not shown) [Compound 42]		2.1 (≈ 3.99 µM)	
COc1cccc(C(c2cc3cc(Br)ccc3nc2OC)C(O)(CCN(C)C)c2ccc(C)nc2)c1OC (stereo not shown) [Compound 24]	0.51 (≈ 0.879 µM)	0.6 (≈ 1.03 µM)	
COc1nc2ccc(Br)cc2cc1C(c1cccc(C)c1)C(O)(CCN(C)C)c1cc(C)nc(C)c1 (stereo not shown) [Compound 53]	0.49 (≈ 0.893 µM)	0.11 (≈ 0.201 µM)	

Compound	MIC90 (M. tb (strain H37Rv) [1]) [µg/mL]	MIC90 (M. tb (strain H37Rv) [2]) [µg/mL]	also measured
COc1cccc(C(c2cc3cc(C#N)ccc3nc2OC)C(O)(CCN(C)C)c2ccc(C)nc2)c1OC (stereo not shown) [Compound 25]		> 5	
COc1cccc(C(c2cc3cc(Br)ccc3nc2OC)C(O)(CCN(C)C)c2cc(C)nc(C)c2)c1F (stereo not shown) [Compound 54]	0.3 (≈ 0.515 µM)	0.11 (≈ 0.189 µM)	
COc1cccc(C(c2cc3cc(Br)ccc3nc2OC)C(O)(CCN(C)C)c2cnc(C)c(C)c2)c1OC (stereo not shown) [Compound 34]	0.14 (≈ 0.235 µM)	0.07 (≈ 0.118 µM)	
COc1cccc(C(c2cc3cc(Br)ccc3nc2OC)C(O)(CCN(C)C)c2cc(C)cc(C)n2)c1F (stereo not shown) [Compound 11]	0.11 (≈ 0.189 µM)	0.14 (≈ 0.24 µM)	
COc1ccnc(C(O)(CCN(C)C)C(c2cc3cc(C#N)ccc3nc2OC)c2cccc(OC)c2F)c1 (stereo not shown) [Compound 18]	2.2 (≈ 4.15 µM)	2.3 (≈ 4.33 µM)	
COc1cccc(C(c2cc3cc(Br)ccc3nc2OC)C(O)(CCN(C)C)c2ccnc(C)c2)c1F (stereo not shown) [Compound 51]	0.58 (≈ 1.02 µM)	0.47 (≈ 0.827 µM)	
COc1nc2ccc(C#N)cc2cc1C(c1cccc(F)c1)C(O)(CCN(C)C)c1cncc(C)c1 (stereo not shown) [Compound 27]	0.98 (≈ 2.02 µM)	1.2 (≈ 2.48 µM)	microsomal CLint (in vitro [3]): 249 µL/min/mg; microsomal CLint (in vitro [4]): 122 µL/min/mg; hERG % inhibition at 1 µM (hERG potassium channel): 42%/1
COc1cccc(C(c2cc3cc(C#N)ccc3nc2OC)C(O)(CCN(C)C)c2ccnc(C)c2)c1F (stereo not shown) [Compound 52]	3.8 (≈ 7.38 µM)	> 5	
COc1cccc(C(c2cc3cc(C#N)ccc3nc2OC)C(O)(CCN(C)C)c2ccc(C)nc2)c1F (stereo not shown) [Compound 23]	> 5	4.7 (≈ 9.13 µM)	
COc1cccc(C(c2cc3cc(Br)ccc3nc2OC)C(O)(CCN(C)C)c2cccc(C)n2)c1F (stereo not shown) [Compound 4]	2 (≈ 3.52 µM)	0.29 (≈ 0.51 µM)	microsomal CLint (in vitro [3]): 39 µL/min/mg; microsomal CLint (in vitro [4]): 10 µL/min/mg; hERG % inhibition at 3 µM (hERG potassium channel): 34%/3
COc1ccc(C(O)(CCN(C)C)C(c2cc3cc(Br)ccc3nc2OC)c2cccc(OC)c2F)cn1 (stereo not shown) [Compound 45]	0.08 (≈ 0.137 µM)	0.12 (≈ 0.205 µM)	
COc1cccc(C(O)(CCN(C)C)C(c2cc3cc(C#N)ccc3nc2OC)c2cccc3c2OCO3)n1 (stereo not shown) [Compound 16]		1.2 (≈ 2.28 µM)	
1-(7-bromo-3-methoxynaphthalen-2-yl)-1-(2,3-dimethoxyphenyl)-4-(dimethylamino)-2-(2,6-dimethylpyridin-4-yl)butan-2-ol [Compound 56]			MIC90 LORA (M. tb (strain H37Rv) [1]; M.tb H37Rv, non-replicating conditions, 90% inhibition of growth): 0.07 µg/mL; MIC90 MABA (M. tb (strain H37Rv) [2]): 0.04 µg/mL
COc1cccc(C(c2cc3cc(Br)ccc3nc2OC)C(O)(CCN(C)C)c2cccc(C)n2)c1OC (stereo not shown) [Compound 2]	0.13 (≈ 0.224 µM)	0.4 (≈ 0.689 µM)	
COc1cccc(C(c2cc3cc(Br)ccc3nc2OC)C(O)(CCN(C)C)c2ccncc2C)c1F (stereo not shown) [Compound 50]	1.1 (≈ 1.93 µM)	1 (≈ 1.76 µM)	
COc1cccc(C(c2cc3cc(C#N)ccc3nc2OC)C(O)(CCN(C)C)c2cc(C)cc(C)n2)c1F (stereo not shown) [Compound 12]	2.8 (≈ 5.3 µM)	2.3 (≈ 4.35 µM)	
CCc1cc(C(O)(CCN(C)C)C(c2cc3cc(Br)ccc3nc2OC)c2cccc(OC)c2F)cc(CC)n1 (stereo not shown) [Compound 58]	0.21 (≈ 0.344 µM)	0.03 (≈ 0.0491 µM)	microsomal CLint (in vitro [3]): 20 µL/min/mg; microsomal CLint (in vitro [4]): 8 µL/min/mg; hERG % inhibition at 3 µM (hERG potassium channel): 63%/3
COc1cccc(C(c2cc3cc(C#N)ccc3nc2OC)C(O)(CCN(C)C)c2cccc(C)n2)c1F (stereo not shown) [Compound 5]	1.8 (≈ 3.5 µM)	1.1 (≈ 2.14 µM)	
COc1cccc(C(c2cc3cc(Br)ccc3nc2OC)C(O)(CCN(C)C)c2ncccc2C)c1F (stereo not shown) [Compound 7]	0.4 (≈ 0.704 µM)	0.19 (≈ 0.334 µM)	
COc1nc2ccc(Br)cc2cc1C(c1cccc(F)c1)C(O)(CCN(C)C)c1cncc(C)c1 (stereo not shown) [Compound 26]	0.08 (≈ 0.149 µM)	0.28 (≈ 0.52 µM)	
COc1cccc(C(c2cc3cc(Br)ccc3nc2OC)C(O)(CCN(C)C)c2cncc(C)c2)c1OC (stereo not shown) [Compound 28]	0.57 (≈ 0.982 µM)	0.3 (≈ 0.517 µM)	
COc1cccc(C(c2cc3cc(Br)ccc3nc2OC)C(O)(CCN(C)C)c2cccnc2C)c1OC (stereo not shown) [Compound 20]	0.59 (≈ 1.02 µM)	0.3 (≈ 0.517 µM)	
COc1nc2ccc(Br)cc2cc1C(c1cccc2c1OCO2)C(O)(CCN(C)C)c1cccnc1C (stereo not shown) [Compound 21]	0.56 (≈ 0.992 µM)	0.45 (≈ 0.797 µM)	microsomal CLint (in vitro [3]): 51 µL/min/mg; microsomal CLint (in vitro [4]): 71 µL/min/mg; AUC: exposure, AUCinf [5]: 820 ng·h/mL; IV Cl: IV clearance [5]: 44 mL/min/kg; Vz: IV apparent volume of distribution during terminal phase [5]: 21 L/kg; F: oral bioavailability [5]: 19%; hERG % inhibition at 3 µM (hERG potassium channel): 13%/3
COc1cc(C(O)(CCN(C)C)C(c2cc3cc(Br)ccc3nc2OC)c2cccc(OC)c2F)c(OC)cn1 (stereo not shown) [Compound 60]	0.12 (≈ 0.195 µM)	0.11 (≈ 0.179 µM)	microsomal CLint (in vitro [3]): 25 µL/min/mg; microsomal CLint (in vitro [4]): 7 µL/min/mg; IC50 (hERG potassium channel): 1.7 µM
